Values quoted from earlier work as cited in US20200038341A1, “METHODS AND COMPOSITIONS FOR TREATING JOINT DISEASE” (Script Essentials, LLC, priority 2015, published 2020).

Conditions: male and female participants over 50 years old, before and after the intervention

CS(C)(=O)=O [MSM, Methylsulfonylmethane]
joint function, symptoms of joint degeneration and activities of daily living: improve joint function, relieve symptoms of joint degeneration and improve activities of daily living
